Measured values published in patent US20040084867A1, “Individualization of therapy with anticoagulants” (Xanthus Life Sciences, Inc., priority 2002, published 2004).
Where two headings read alike, the source gives them in different places. Marks after values point to notes of the source that are not given here.

How the values were obtained:
[1] = test system: AAMU-Ab; experiment: Competitive antigen ELISA, cross-reactivity of AAMU-Ab; format: binding, rabbit; details: 0 = absence of inhibition or inhibition no higher than 40% at highest concentration tested (5 × 10^−6 M)
Description: (§1) Buffers and water without additives are filtered through millipore filters and kept for 1 week. BSA, antibodies, Tween™ 20 and horse radish peroxidase conjugates are added to these buffers and water just prior to use. Urine samples are usually collected 4 hours after drinking a cup of coffee (instant or brewed with approximately 100 mg of caffeine per cup) and stored at −80° C. The urine samples are diluted 10 times with sodium phosphate buffer (620 mosm, pH 7.50) and are subsequently diluted with water to give- concentrations of AAMU and 1X no higher than 3×10^−6 M in the ELISA. All the pipettings are done with an eight-channel pipette, except those of the antibody and sample solutions. Starting with the last well, 100 μL of a carbonate buffer (100 mM, pH 9.6) containing 2.5 μg mL^−1 antibodies are added to each well. After 90 min. at room temperature, the wells are washed three times with […] of TPB: isotonic sodium phosphate buffer (310 mosm, pH 7.50) containing 0.05% Tween™ 20.
(§2) After the initial wash, unoccupied sites are blocked by incubation for 90 min. at room temperature with 100 μL TBP containing 3% BSA. The wells are washed four times with 100 μL TPB. […] The microplate is gently shaken with an orbital shaker at room temperature for 3-4 hours. The wells are washed three times with 100 μL TPB containing 1% BSA and three times with water containing 0.05% Tween™ 20. To the washed plate is added 150 μL of a substrate buffer composed of citric acid (25 mM) and sodium phosphate dibasic buffer (50 mM, pH 5.0) containing 0.06% hydrogen peroxide and 0.04% o-phenylenediamine hydrochloride.
(§3) Buffers and water without additives were filtered through millipore filters and kept for 1 week. BSA, antibodies, Tween™ 20 and horse radish peroxidase conjugates were added to these buffers and water just prior to use. Urine samples were usually collected 4 hours after drinking a cup of coffee (instant or brewed with approximately 100 mg of caffeine per cup) and stored at −80° C. They were diluted 10 times with sodium phosphate buffer (620 mosm, pH 7.50) and were subsequently diluted with water to give concentrations of AAMU and 1X no higher than 3×10^−6 M in the ELISA. All the pipettings were done with an eight-channel pipette, except those of the antibody and sample solutions. Starting with the last well, 100 μL of a carbonate buffer (100 mM, pH 9.6) containing 2.5 μg mL^−1 antibodies was pipetted. After 90 min. at room temperature, the wells were washed three times with 100 μL of TPB: isotonic sodium phosphate buffer (310 mosm, pH 7.50) containing 0.05% Tween™ 20.
(§4) After the initial wash, unoccupied sites were blocked by incubation for 90 min. at room temperature with 100 μL TBP containing 3% BSA. The wells were washed four times with 100 μL TPB. […] The microplate was gently shaken with an orbital shaker at room temperature for 3-4 hours. The wells were washed three times with 100 μL with TPB containing 1% BSA and three times with water containing 0.05% Tween™ 20. To the washed plate was added 150 μL of a substrate buffer composed of citric acid (25 mM) and sodium phosphate dibasic buffer (50 mM, pH 5.0) containing 0.06% hydrogen peroxide and 0.04% o-phenylenediamine hydrochloride. After 20 min. at room temperature with shaking, the reaction was stopped with 50 μL of 2.5 N HCl.

[2] = test system: 1X-Ab; experiment: Competitive antigen ELISA, cross-reactivity of 1X-Ab; format: binding, rabbit; details: for % Cross-Reaction, 1X-Ab: competitive antigen ELISA, 0 = absence of inhibition or inhibition no higher than 40% at highest concentration tested (5 × 10^−6 M); for [1X] × 10^6 (M), 1X concentration determined by ELISA: fixed 1X 3×10^−6 M
Description: as §1, §2, §3, §4

[3] = test system: poor vs. extensive metabolizers; details: cited from earlier work
[4] = test system: CYP2C9; details: cited from earlier work
[5] = test system: coronary artery patency; details: Heparin-Aspirin Reperfusion Trial, after TPA; aspirin 80 mg per day; cited from earlier work
[6] = test system: slow and fast acetylators; details: cited from earlier work
[7] = test system: individuals with deep vein thrombosis; details: Hull 1979; proximal DVT, 3 months; heparin 5,000 units sc every 12 hours, sodium warfarin INR 2.5 to 4.5; cited from earlier work
[8] = test system: surgical and medical individuals; details: individuals with hip fracture, begun preoperatively; cited from earlier work
[9] = test system: individuals with acute myocardial infarction; details: in vivo; cited from earlier work
[10] = test system: individuals with evolving myocardial infarction; details: cited from earlier work; for combined incidence of death or nonfatal hemorrhagic stroke: TPA group vs groups receiving streptokinase
[11] = test system: individuals with acute myocardial infarction; details: cited from earlier work
[12] = cited from earlier work
[13] = individuals who died before heparin was started excluded

Compound	% Cross-Reaction, AAMU-Ab [1]	% Cross-Reaction, 1X-Ab [2]	further results
Cn1c(=O)c2c(ncn2C)n(C)c1=O [1,3,7-Trimethyl Xanthine (Caffeine), 1,3,7-Trimethyl Xanthine]	0%	0%	–
Cn1c(=O)c2[nH]cnc2n(C)c1=O [1,3-Dimethyl Xanthine (Theophylline), 1,3-Dimethyl Xanthine]	0%	0.2%	–
Cn1c(=O)[nH]c2ncn(C)c2c1=O [1,7-Dimethyl Xanthine (Paraxanthine), 1,7-Dimethyl Xanthine]	0%	0.5%	–
Cn1c(=O)[nH]c2[nH]c(=O)n(C)c2c1=O [1,7-Dimethyluric acid]	0%	0%	–
Cn1c(=O)[nH]c2nc[nH]c2c1=O [1-Methyl Xanthine (1X), 1-Methyl Xanthine]	0%	100%	–
Cn1c(=O)[nH]c2[nH]c(=O)[nH]c2c1=O [1-Methyluric acid]	0%	11%	[1X] × 10^6 (M), 1X concentration determined by ELISA ([2]; 1U:1X ratio 0.50): 2.75 × 10^6 (M); [1X] × 10^6 (M), 1X concentration determined by ELISA ([2]; 1U:1X ratio 1.00): 3.25 × 10^6 (M); [1X] × 10^6 (M), 1X concentration determined by ELISA ([2]; 1U:1X ratio 1.50): 3.25 × 10^6 (M); [1X] × 10^6 (M), 1X concentration determined by ELISA ([2]; 1U:1X ratio 2.00): 3.60 × 10^6 (M); apparent increase of 1X concentration ([2]; 1U:1X ratio 2.5): 22%; [1X] × 10^6 (M), 1X concentration determined by ELISA ([2]; 1U:1X ratio 2.50): 3.65 × 10^6 (M); apparent increase of 1X concentration ([2]; 1U:1X ratio 3.0): 32%; [1X] × 10^6 (M), 1X concentration determined by ELISA ([2]; 1U:1X ratio 3.00): 3.95 × 10^6 (M); [1X] × 10^6 (M), 1X concentration determined by ELISA ([2]; 1U:1X ratio 4.00): 4.20 × 10^6 (M); [1X] × 10^6 (M), 1X concentration determined by ELISA ([2]; 1U:1X ratio 5.00): 4.30 × 10^6 (M); [1X] × 10^6 (M), 1X concentration determined by ELISA ([2]; 1U:1X ratio 6.00): 4.50 × 10^6 (M); [1X] × 10^6 (M), 1X concentration determined by ELISA ([2]; 1U:1X ratio 8.00): 4.30 × 10^6 (M)
Cn1cnc2c1c(=O)[nH]c(=O)n2C [3,7-Dimethyl Xanthine (Theobromine), 3,7-Dimethyl Xanthine]	0%	0%	–
Cn1c(=O)[nH]c(=O)c2[nH]cnc21 [3-Methyl Xanthine]	0%	0%	–
CC(=O)Nc1c(N)n(C)c(=O)n(C)c1=O [5-Acetamino-6-amino-1,3-dimethyluracil]	0%	0%	–
CC(=O)Nc1c(N)n(C)c(=O)[nH]c1=O [5-Acetamino-6-amino-1-methyluracil]	100%	0%	–
CC(=O)Nc1c(N)[nH]c(=O)[nH]c1=O [5-Acetamino-6-amino-uracil]	0.6%	0%	–
Cn1cnc2[nH]c(=O)[nH]c(=O)c21 [7-Methyl Xanthine]	0%	0%	–
Cc1nc2[nH]c(=O)[nH]c(=O)c2[nH]1 [8-Methyl Xanthine]	0%	0%	–
COc1ccc2c(c1)[C@]13CCCC[C@@H]1[C@H](C2)N(C)CC3 [Dextromethorphan]	–	–	mean performance ±SE ([3]; EMs): 95±0.5%; mean performance ±SE ([3]; PMs): 86±6%
Nc1nc2nc[nH]c2c(=O)[nH]1 [Guanine]	0%	0%	–
O=c1[nH]cnc2nc[nH]c12 [Hypoxanthine]	0%	0%	–
CC(=O)C[C@@H](c1ccccc1)c1c(O)c2ccccc2oc1=O [S-warfarin]	–	–	↓ in CLpo,u (unbound oral clearance) ([4]; 47 Japanese, an individual with *3/*3): 90% ↓ in CLpo,u for (S)-warfarin in an individual; ↓ in CLpo,u (unbound oral clearance) ([4]; 86 Japanese, 3 individuals with *1/*3): 63% ↓ in CLpo,u for (S)-warfarin in 3 individuals
O=c1cc[nH]c(=O)[nH]1 [Uracil]	0%	0%	–
O=c1[nH]c(=O)c2[nH]c(=O)[nH]c2[nH]1 [Uric acid]	0%	0%	–
O=c1[nH]c(=O)c2[nH]cnc2[nH]1 [Xanthine]	0^a %	0%	–
CC(=O)Oc1ccccc1C(=O)O [aspirin]	–	–	Coronary artery patency at 18 hours [5]: 52%
Nc1ccc(S(=O)(=O)c2ccc(N)cc2)cc1 [dapsone]	–	–	adverse reactions ([6]; fast acetylators): 17%; adverse reactions ([6]; slow acetylators): 46%
CC(=O)CC(c1ccccc1)c1c(O)c2ccccc2oc1=O (stereo not drawn) [sodium warfarin]	–	–	rate of recurrent venous thromboembolism [7]: 0%
Dextran	–	–	incidence of thrombosis [8]: 30%
streptokinase	–	–	cerebral hemorrhage rate [9]: 0.24%; stroke rate [9]: 1.04%; combined incidence of death or nonfatal hemorrhagic stroke [10]: 7.5%; mortality rate ([11]; all individuals): 9.2%; mortality rate [11, 13]: 6.2%
tissue plasminogen activator [TPA]	–	–	cerebral hemorrhage rate [9]: 0.66%; excess of episodes of presumed hemorrhagic strokes compared with streptokinase [9]: 4.2 per 1000; excess of strokes compared with streptokinase [9]: 3.5 per 1000; stroke rate [9]: 1.39%; combined incidence of death or nonfatal hemorrhagic stroke [10]: 6.6%; reduction of mortality compared with the streptokinase strategies ([10]; in vivo): 14%; mortality rate ([11]; all individuals): 8.7%; mortality rate [11, 13]: 5.9%
vitamin K	–	–	duration of resistance to warfarin ([12]; doses of 5 mg or more): up to 1 week; time to evident partial reversal of the anticoagulant effect of warfarin ([12]; parenteral administration): ≤ 6 h
